Data reported in publication PMC11904221 (EMBO Molecular Medicine, 2025).
Converted amounts (≈) assume the structure as drawn. “And” between values parts separate entries of the source, which are not always exact repeats. Equal values may be shown once. Read-outs that look alike come from different tables or passages of the source. Where a SMILES comes first, the peptide text is derived from it.

Key:
in vitro [1] = settings: human
in vitro [2] = assay: in vitro
apelin receptor [3] = biological target: T1, apelin receptor (Homo sapiens, UniProt P35414); assay: Plasmon waveguide resonance (PWR) ligand binding; set-up: expressed in transfected cells; host or cells: HEK cells overexpressing apelin receptor (membrane fragments); settings: HEK-apelin receptor cell membrane fragments on polylysine-treated sensor, 22 °C, n = 3
T1 sequence (P35414 1-380): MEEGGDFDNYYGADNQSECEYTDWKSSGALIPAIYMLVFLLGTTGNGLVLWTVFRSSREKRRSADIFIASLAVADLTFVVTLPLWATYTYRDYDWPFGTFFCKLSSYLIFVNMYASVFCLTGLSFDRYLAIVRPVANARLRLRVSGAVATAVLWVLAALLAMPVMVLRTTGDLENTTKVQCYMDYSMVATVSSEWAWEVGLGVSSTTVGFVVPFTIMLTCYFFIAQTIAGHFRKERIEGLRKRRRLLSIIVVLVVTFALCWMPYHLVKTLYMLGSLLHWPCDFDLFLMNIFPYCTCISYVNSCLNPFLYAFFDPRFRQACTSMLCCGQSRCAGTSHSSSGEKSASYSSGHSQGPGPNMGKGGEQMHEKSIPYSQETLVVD
Text: Red arrows indicate the direction of vessel formation. […] All data are representative of three independent experiments. […] The two Furin cleavage sites are shown. […] (S–U) Plasmon waveguide resonance (PWR). […] Source data are available online for this figure.

Furin = Furin (Homo sapiens, UniProt P09958)
in vivo = settings: both sexes, BALB/c, mouse, ip
Protocol: Pharmacological profile of APLN-DM peptide
Maximal Tolerated Dose (MTD) study of APLN -DM in mice
Six groups comprising six Balb/C mice per group (3 males and 3 females) were assigned to the study. In each gender, one control group (1 Male (M)/1 female (F)) received the reference solution (vehicle) and 5 […]
mg/kg (4M/4F), 2000 mg/kg (5M/5F) and 1500 mg/kg (6M/6F). APLN-DM peptide was administrated via intra-peritoneal (IP) single injection at day 1 followed by observation during 14 days. During the study, mortality, morbidity, general clinical signs and bod y weight were recorded. In the end of the study pathology and organ necropsy examination were performed. Thereby, APLN-DM peptide and vehicle were administered to mice according to Table-1 and their effects were analyzed according to Table-2.
Each test item dose was administrated to 3 female and 3 male mice. The administration was performed IP at a dose volume of 10 ml/kg. Dosing was performed according to Figure-1 and each increase in dose pending on the outcome of the previous dose (results of clinical signs). The lag time between the increasing doses was approximately 48h.
No. (n=) Mouse# Treatment Dose Level administration administratio […]
Table-1. Study design -1. […], […]
Study Day* Procedure Body Weight Clinical Mortality & Organ
Sign Morbidity observation
2-14 - Twice weekly Once -
15 Termination √ √ Gross pathology
Figure 1 - Decisional tree for successive dosing for MTD determination […]
At study termination, body weight (Figure 2 and Figure 3) and gross pathology abnormalities were analyzed in all animals. Main pathological finding were blood clots in intestine and chest cavity. Treatment-related clinical adverse side effects (purple tail, lethargy, decreased motor activity) were observed also in groups treated either with 200, 500, 1000 and 1500 mg/kg. The tail recovered a normal color after 1 hour in all dose groups. […]
abnormalities were detected in all male and female animals from these groups at the scheduled termination […]

in vitro [4] = assay: in vitro; remark: listed apart in the source
[5] = pH 7.4
[6] = Pharmacokinetic profile in mice, LC/MS; type: in vivo, mouse; settings: Balb/C mice plasma, LC/MS, estimated from the 5 and 10 min samples
Protocol: Pharmacokinetic profile of APLN-DM in mice
The aim of the current study was to evaluate pharmacokinetic properties of APLN-DM peptide administrated intravenously (IV) or intraperitoneously (IP) in Balb/C mice. […]
for the IP group). Development of quantification method was performed using liquid chromatography coupled to mass spectrometry (LC/MS).
Results: Samples obtained in vivo were analyzed according to quantification-developed method and the peptide was detectable until 15 minutes after administration. Analysis allowed determining that APLN-DM […]
All animals were divided to three groups of 27 animals, one of 12 animals and one of 3 animals (vehicle) and will receive the corresponding test item according to Table 1. Each animal was weighed and administered at the appropriate volume.
Concentration ROA Blood Individual animal numbers
Group No. Treatment Dose Collect
Table 11 - Group allocation
Development of analytic method
Standard range from 0.5 to 100 µM was prepared and analysed for each fragmented ion as previously […]
Standard curves obtained for each ion are represented in Figure 6.
Figure 8: Standard curves obtained by quantification of each fragmented ion The best linearity was obtained by quantifying the fragmented ion 785 (z=5).
Quantification of APLN-DM in samples
Summary of analytical method development:
Quantification method was performed according to previous work. In summary, samples were analysed with a LC-MS triple quadripole system (ESI QqQ). The chromatographic system was a UPLC activity (Waters) coupled to a mass spectrometer TSQ Quantum Ultra (Thermo) equipped with triple quadripole analyser and electrospray ionisation (ESI) system. The selected column was Kinetex F5 […] 50x2.1 mm (Phenomenex). The analysis was made by quantifying fragmented ion z=5 (m/z=785) in samples compared […]
quantitation was previously determined to be 0.5 µM. Samples were analysed after protein precipitation as […]
In vivo phase samples analysis
As the stability of peptide is low, even in frozen plasma, it was decided to re-run the in vivo phase for the highest dose and to use freshly prepared samples.
26 samples were used for analysis.
Only samples taken 5 and 10 minutes after peptide administration presented detectable concentrations (see
Table 9). While 15 min results were on the level of accuracy (linearity threshold values). At a later time […]
estimated based on the 5 and 10 min measurements.
Sample ID Area Calculated amount

[7] = liver microsomes
apelin receptor [8] = biological target: T1, apelin receptor; assay: Radioligand binding assay; set-up: purchased Euroscreen FAST-020B; settings: competition with [125I]-(Pyr1)-apelin-13, apelin receptor membrane extracts 2 μg protein/well, 96-well plates
Protocol: (§1) Scale bar, 50 µm. (C) Radioligand binding assay. […] Data are representative of three independent experiments and data shown as the mean ± s.e.m. […] The signals were sorted from high (red) to low (blue) intensity/phosphorylation. […] Source data are available online for this figure.
Dose-response curves were established and the estimated IC50 values were calculated for each compound.

CT-26 tumors = type: in vivo; settings: Appendix Fig. S13
Text: Tumor growth, apoptosis, proliferation, and/or the angiogenic index of the developed tumors were first evaluated.
(A) Scheme and workflow of apelin-dm preclinic studies. […] (B–D) Error bars indicate s.e.m. center values indicate mean (Mann–Whitney U test). […] The percentage of relative staining intensity corresponding to CD31, Ki67, and BIM expression in CT-26 and MC-38 tumors of treated mice are shown in (I–N). Scale bar, 100 µm. Data represent mean ± s.e.m. of 3–4 independent experiments. P values were calculated with the Student t test in GraphPad. […] Quantification of tumor area (P) and vascularized area (Q) relative to control untreated CAMs (n = 3 CAM per group) assigned 100%. Data represent mean ± s.e.m. P values were calculated with the Student t test in GraphPad. […] (S, T) The average blood flow expressed in % relative to blood flow measured in […] (S) and MDA-MB231 (T) developed tumors. Data represent mean ± s.e.m. of 3–4 independent experiments. P values were calculated with the Student t test in GraphPad. Source data are available online for this figure.
Additional experiments involved injecting 1 × 10^6 control CT-26/MC-38/MDA-MB231 cells into BALB/c, C57BL/6, or nude mice, respectively. […] LASER Doppler imaging assessed total blood flow, with FlowR® Hemodynamics visualization used for analysis. Results were expressed as % relative to pre-treatment tumor blood flow.

AKT and ERK = assay: Phosphorylation of AKT and ERK in HUVEC, SMC, CT-26, HEK 293; type: cell-based; settings: HUVECs, SMCs, CT-26 cells, HEK-293 cells
Text: as §1

Furin, sequence (P09958 108-794, species assumed): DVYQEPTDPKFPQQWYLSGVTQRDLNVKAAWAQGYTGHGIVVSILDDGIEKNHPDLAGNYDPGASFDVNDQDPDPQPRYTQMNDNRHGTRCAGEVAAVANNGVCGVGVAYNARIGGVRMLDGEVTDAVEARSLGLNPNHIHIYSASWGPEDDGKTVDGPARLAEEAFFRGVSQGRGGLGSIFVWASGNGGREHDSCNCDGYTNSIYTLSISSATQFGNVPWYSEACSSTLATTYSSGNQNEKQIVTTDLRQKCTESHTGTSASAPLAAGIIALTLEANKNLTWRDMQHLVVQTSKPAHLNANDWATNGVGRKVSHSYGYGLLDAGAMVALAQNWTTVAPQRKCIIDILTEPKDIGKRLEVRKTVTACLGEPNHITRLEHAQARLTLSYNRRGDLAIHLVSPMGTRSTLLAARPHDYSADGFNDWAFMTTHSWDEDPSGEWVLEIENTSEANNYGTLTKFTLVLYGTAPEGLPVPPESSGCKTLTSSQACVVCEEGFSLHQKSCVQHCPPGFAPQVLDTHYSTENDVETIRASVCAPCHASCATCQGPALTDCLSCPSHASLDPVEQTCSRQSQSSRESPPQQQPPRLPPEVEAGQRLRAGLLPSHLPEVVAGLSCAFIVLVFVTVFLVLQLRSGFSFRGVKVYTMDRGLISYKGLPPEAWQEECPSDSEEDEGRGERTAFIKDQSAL

Row | Compound | Half-life, Mean (in vitro [1]) [min] | half-life (in vitro [1]; plasma) [min] | % Protein bound, Mean (in vitro [2]) [%] | fraction unbound (in vitro [2]; plasma) | Kd (apelin receptor [3]) [nM] | cleavage by Furin (Furin) | MTD at 336 h (in vivo) [mg/kg] | % Protein bound, Mean (in vitro [4]) [%] | Solubility, Mean [5] [µM] | half-life in vivo in mice [6] [min] | Intrinsic clearance in liver microsomes [7] [µL/min/mg] | IC50 (apelin receptor [8]) | toxicity in treated tumor-bearing mice (CT-26 tumors) | ERK and AKT activation (AKT and ERK)
1 | CSCC[C@H](NC(=O)[C@@H]1CCCN1C(=O)CNC(=O)[C@H](CCCCN)NC(=O)[C@H](Cc1c[nH]cn1)NC(=O)[C@H](CO)NC(=O)[C@H](CC(C)C)NC(=O)[C@H](CCCNC(=N)N)NC(=O)[C@@H]1CCCN1C(=O)[C@H](CCCNC(=N)N)NC(=O)[C@H](CCC(N)=O)NC(=O)[C@H](CO)NC(=O)[C@H](CO)NC(=O)[C@H](Cc1ccccc1)NC(=O)[C@H](CCCCN)NC(=O)[C@H](CO)NC(=O)[C@H](CO)NC(=O)CNC(=O)CNC(=O)[C@H](CCC(N)=O)NC(=O)[C@H](Cc1c[nH]c2ccccc12)NC(=O)[C@@H]1CCCN1C(=O)CNC(=O)[C@@H]1CCCN1C(=O)CNC(=O)[C@H](CC(N)=O)NC(=O)[C@H](CCCNC(=N)N)NC(=O)[C@H](CO)NC(=O)CNC(=O)[C@H](CCCNC(=N)N)NC(=O)[C@@H]1CCCN1C(=O)[C@H](CCC(N)=O)NC(=O)[C@@H](NC(=O)[C@@H](N)CC(C)C)C(C)C)C(=O)N1CCC[C@H]1C(=O)N[C@@H](Cc1ccccc1)C(=O)O [apelin-dm] (H-LVQPRGSRNGPGPWQGGSSKFSSQRPRLSHKGPMPF-OH) | 1121 | > 1080 | 54 | ~0.5 | ~0.03 | more stable and not cleaved | > 1000 | 26 | 187.3 (≈ 734 µg/mL) | 20 | < 115.5 | 0.45 nM and 0.47 nM | no obvious toxicity in treated mice was observed | –
2 | apelin | – | – | – | – | – | – | – | – | – | – | – | – | – | activated ERK and AKT
